Counter-ions that a name gives are not always drawn. Bounds are passed on as bounds.

This assay has as its target human KV7.2/KV7.3 (Homo sapiens (Human), UniProt O43525+O43526). In words: Potassium flux assay (IPG-2 AM dye). Format: cell-based. To be noted: TREX HEK 293 or HEK 293 cells expressing human KV7.2/KV7.3; arithmetic mean values. The method in brief:
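HEK 293 or TREX HEK 293 cells stably expressing human KV7.2/KV7.3 (tetracycline-induced where needed), loaded with IPG-2 AM, then compound for 20 min at room temperature. Flux triggered by K challenge buffer (10 mM KCl, pH 7.4), read at 530/558 nm; EC50 from 16-point 2-fold series from 30 μM, normalised to DMSO and reference modulator.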

By EC50 is commonly meant the concentration needed to bring the measured effect to its halfway point. Consider `Clc1ncc(Nc2nccc3cc(OCCc4cn[nH]c4)ccc23)cn1` [Example 390, 6-(2-(1H-pyrazol-4-yl)ethoxy)-N-(2-chloropyrimidin-5-yl)isoquinolin-1-amine formate], for which the EC50 was less than 1 µM.

`Clc1ccc(Nc2nccc3cc(OCc4cc[nH]n4)ccc23)cn1` [Example 391, 6-((1H-pyrazol-3-yl)methoxy)-N-(6-chloropyridin-3-yl)isoquinolin-1-amine]: the EC50 was 1 to 10 µM.

`Cc1cc(COc2ccc3c(Nc4ccc(Cl)nc4)nccc3c2)n[nH]1` [Example 392, N-(6-chloropyridin-3-yl)-6-((5-methyl-1H-pyrazol-3-yl)methoxy)isoquinolin-1-amine]: the EC50 lay within 1 to 10 µM.

As for `Cc1n[nH]cc1COc1ccc2c(Nc3ccc(Cl)nc3)nccc2c1` [Example 393, N-(6-chloropyridin-3-yl)-6-((3-methyl-1H-pyrazol-4-yl)methoxy)isoquinolin-1-amine], the EC50 was less than 1 µM.

Consider `OC1(COc2ccc3c(Nc4ccc(Cl)nc4)nccc3c2)COC1` [Example 394, 3-(((1-((6-chloropyridin-3-yl)amino)isoquinolin-6-yl)oxy)methyl)oxetan-3-ol], for which the EC50 was 1 to 10 µM.

On to `Cc1ncc(Nc2nccc3cc(OCc4cn[nH]c4)ccc23)cn1` [Example 395, 6-((1H-pyrazol-4-yl)methoxy)-N-(2-methylpyrimidin-5-yl)isoquinolin-1-amine], for which the EC50 is 1 to 10 µM.

With `Cc1ncc(Nc2nccc3cc(OCc4c[nH]nc4C)ccc23)cn1` [Example 396, 6-((3-methyl-1H-pyrazol-4-yl)methoxy)-N-(2-methylpyrimidin-5-yl)isoquinolin-1-amine], the EC50 was less than 1 µM.

As for `Cn1cc(F)c(COc2ccc3c(Nc4ccc(Cl)nc4)nccc3c2)n1` [Example 397, N-(6-chloropyridin-3-yl)-6-((4-fluoro-1-methyl-1H-pyrazol-3-yl)methoxy)isoquinolin-1-amine formate], the EC50 is less than 1 µM.

Regarding `Cc1cc2ccccc2c(Nc2ccc(Cl)nc2)n1` [Example 398, N-(6-chloropyridin-3-yl)-3-methylisoquinolin-1-amine], the EC50 is no less than 30 µM.

Take `COc1cnc2c(Nc3ccc(Cl)nc3)nccc2c1` [Example 399, N-(6-chloropyridin-3-yl)-3-methoxy-1,7-naphthyridin-8-amine]: the EC50 fell in the range of 1 to 10 µM.

Consider `N#CCn1cc(COc2ccc3c(Nc4ccc(Cl)nc4)nccc3c2)cn1` [Example 400, 2-(4-(((1-((6-chloropyridin-3-yl)amino)isoquinolin-6-yl)oxy)methyl)-1H-pyrazol-1-yl)acetonitrile], for which the EC50 was less than 1 µM.

Take `O=C(Nc1ccc2c(Nc3ccc(Cl)nc3)nccc2c1)C1(CO)CC1` [Example 401, N-(1-((6-chloropyridin-3-yl)amino)isoquinolin-6-yl)-1-(hydroxymethyl)cyclopropane-1-carboxamide]: the EC50 is no less than 30 µM.

On to `FC(F)(F)CNc1cnc(Nc2ccc(Cl)nc2)c2[nH]ccc12` [Example 402, NF-(6-chloropyridin-3-yl)-N^4-(2,2,2-trifluoroethyl)-1H-pyrrolo[2,3-c]pyridine-4,7-diamine], for which the EC50 was in the range of 1 to 10 µM.

In the case of `Clc1ccc(Nc2ncc(NCc3ccccc3)c3cc[nH]c23)cn1` [Example 403, N^4-benzyl-N^7-(6-chloropyridin-3-yl)-1H-pyrrolo[2,3-c]pyridine-4,7-diamine], the EC50 fell in the range of 10 to 30 µM.

`FC1(F)CC1COc1ccc2c(Nc3ccc(Cl)nc3)nccc2c1` (stereo not drawn) [Example 404, N-(6-chloropyridin-3-yl)-6-((2,2-difluorocyclopropyl)methoxy)isoquinolin-1-amine]: the EC50 is less than 1 µM.

For the molecule `CC1(C)CC[C@@H](COc2ccc3c(Nc4ccc(Cl)nc4)nccc3c2)O1` [Example 405, (S)-N-(6-chloropyridin-3-yl)-6-((5,5-dimethyltetrahydrofuran-2-yl)methoxy)isoquinolin-1-amine], the EC50 was in the range of 1 to 10 µM.

On to `CC1(COc2ccc3c(Nc4ccc(Cl)nc4)nccc3c2)CCCO1` (stereo not drawn) [Example 406, N-(6-chloropyridin-3-yl)-6-((2-methyltetrahydrofuran-2-yl)methoxy)isoquinolin-1-amine], for which the EC50 was less than 1 µM.

On to `FC1(F)CC(COc2ccc3c(Nc4ccc(Cl)nc4)nccc3c2)C1` [Example 407, N-(6-chloropyridin-3-yl)-6-((3,3-difluorocyclobutyl)methoxy)isoquinolin-1-amine], for which the EC50 was in the range of 1 to 10 µM.

Take `F[C@H]1C[C@H](Oc2ccc3c(Nc4ccc(Cl)nc4)nccc3c2)C1` [Example 408, N-(6-chloropyridin-3-yl)-6-((1r,3r)-3-fluorocyclobutoxy)isoquinolin-1-amine]: the EC50 was in the range of 1 to 10 µM.

For `FC(F)C(F)(F)COc1ccc2c(Nc3ccc(Cl)nc3)nccc2c1` [Example 409, N-(6-chloropyridin-3-yl)-6-(2,2,3,3-tetrafluoropropoxy)isoquinolin-1-amine], the EC50 fell in the range of 1 to 10 µM.

`COc1ccc2c(Nc3ccc(Cl)nc3)ncc(OC)c2c1` [Example 410, N-(6-chloropyridin-3-yl)-4,6-dimethoxyisoquinolin-1-amine]: the 50% effective concentration (EC50) was 10 to 30 µM.

Take `Clc1ccc(Nc2nccc3cc(OC4CCC4)ccc23)cn1` [Example 411, N-(6-chloropyridin-3-yl)-6-cyclobutoxyisoquinolin-1-amine]: the EC50 was 1 to 10 µM.

For the molecule `FC1(F)CC(Oc2ccc3c(Nc4ccc(Cl)nc4)nccc3c2)C1` [Example 412, N-(6-chloropyridin-3-yl)-6-(3,3-difluorocyclobutoxy)isoquinolin-1-amine], the EC50 lay in the range of 1 to 10 µM.

On to `F[C@@H]1C[C@H]1COc1ccc2c(Nc3ccc(Cl)nc3)nccc2c1` [Example 413, N-(6-chloropyridin-3-yl)-6-(((1S,2R)-2-fluorocyclopropyl)methoxy)isoquinolin-1-amine], for which the EC50 was 1 to 10 µM.

For `F[C@H]1C[C@H]1COc1ccc2c(Nc3ccc(Cl)nc3)nccc2c1` [Example 414, N-(6-chloropyridin-3-yl)-6-(((1S,2S)-2-fluorocyclopropyl)methoxy)isoquinolin-1-amine], the EC50 is 1 to 10 µM.

For the molecule `Clc1ccc(Nc2nccc3cc(OCC4CCOC4)ccc23)cn1` (stereo not drawn) [Example 415, N-(6-chloropyridin-3-yl)-6-((tetrahydrofuran-3-yl)methoxy)isoquinolin-1-amine], the EC50 was less than 1 µM.

As to `CC1(C)CC[C@H](COc2ccc3c(Nc4ccc(Cl)nc4)nccc3c2)O1` [Example 416, (R)-N-(6-chloropyridin-3-yl)-6-((5,5-dimethyltetrahydrofuran-2-yl)methoxy)isoquinolin-1-amine], the EC50 was 1 to 10 µM.

For the molecule `FC(F)COc1ccc2c(Nc3ccc(Cl)nc3)nccc2c1` [Example 417, N-(6-chloropyridin-3-yl)-6-(2,2-difluoroethoxy)isoquinolin-1-amine], the EC50 lay in the range of 1 to 10 µM.

`COCCNC(=O)c1ccc2c(Nc3ccc(Cl)nc3)nccc2c1` [Example 418]: the EC50 is 10 to 30 µM.

As to `O=C(NCC1CC1)c1ccc2c(Nc3ccc(Cl)nc3)nccc2c1` [Example 419, 1-((6-chloropyridin-3-yl)amino)-N-(cyclopropylmethyl)isoquinoline-6-carboxamide], the EC50 fell in the range of 10 to 30 µM.

`CC1(C)CCC(COc2ccc3c(Nc4cnc(Cl)nc4)nccc3c2)O1` (stereo not drawn) [Example 420]: the EC50 lay within 1 to 10 µM.

Consider `Clc1ccc(Nc2nccc3cc(N4CCCC4)ccc23)cn1` [Example 421, N-(6-chloropyridin-3-yl)-6-(pyrrolidin-1-yl)isoquinolin-1-amine], for which the EC50 was 1 to 10 µM.

Consider `Cn1nccc1-c1ccc2c(Nc3ccc(Cl)nc3)nccc2c1` [Example 422, N-(6-chloropyridin-3-yl)-6-(1-methyl-1H-pyrazol-5-yl)isoquinolin-1-amine], for which the EC50 lay in the range of 1 to 10 µM.

As for `Clc1ccc(Nc2nccc3cc(-c4cncnc4)ccc23)cn1` [Example 423, N-(6-chloropyridin-3-yl)-6-(pyrimidin-5-yl)isoquinolin-1-amine], the EC50 was in the range of 10 to 30 µM.

`Clc1ccc(Nc2nccc3cc(-c4cc[nH]n4)ccc23)cn1` [Example 424, N-(6-chloropyridin-3-yl)-6-(1H-pyrazol-3-yl)isoquinolin-1-amine]: the EC50 was in the range of 1 to 10 µM.

`Clc1ccc(Nc2nccc3cc(Cn4nccn4)ccc23)cn1` [Example 425, 6-((2H-1,2,3-triazol-2-yl)methyl)-N-(6-chloropyridin-3-yl)isoquinolin-1-amine]: the EC50 lay in the range of 1 to 10 µM.

For the molecule `Clc1ccc(Nc2nccc3cc(Cc4ccccn4)ccc23)cn1` [Example 426, N-(6-chloropyridin-3-yl)-6-(pyridin-2-ylmethyl)isoquinolin-1-amine], the EC50 fell in the range of 1 to 10 µM.

Regarding `Cc1ccc(Nc2nccc3cc(OCc4c[nH]nc4C)ccc23)cn1` [Example 427, 6-((3-methyl-1H-pyrazol-4-yl)methoxy)-N-(6-methylpyridin-3-yl)isoquinolin-1-amine formate], the EC50 was less than 1 µM.

As for “N^8-(6-chloropyridin-3-yl)-N^3-((1-methyl-1H-pyrazol-4-yl)methyl)-1,7-naphthyridine-3,8-diamine [Example 251]”, the EC50 lay in the range of 1 to 10 µM.

These data come from patent US20240101531A1, “PYRIDINAMINE DERIVATIVES AND THEIR USE AS POTASSIUM CHANNEL MODULATORS” (Xenon Pharmaceuticals Inc., priority 2022, published 2024).
